Laboratory results taken from the kinase profiling compilation of Christmann-Franck et al. (2016).

Key:
Test in all cases: radiometric filter-binding kinase assay
[1] = molecular target: MAP2K1 (human) (UniProt Q02750)
[2] = molecular target: PAK7 (human) (UniProt Q9P286)
[3] = molecular target: SYK (human) (UniProt P43405)
[4] = molecular target: CDK2 CCNA2 (human) (UniProt P20248+P24941)
[5] = molecular target: IKBKE (human) (UniProt Q14164)
[6] = molecular target: RPS6KA3 KD1 KD2 (human) (UniProt P51812)
[7] = molecular target: EPHA4 (human) (UniProt P54764)
[8] = molecular target: MAPK3 (human) (UniProt P27361)
[9] = molecular target: RIPK2 (human) (UniProt O43353)
[10] = molecular target: MAPK14 (human) (UniProt Q16539)
[11] = molecular target: SRC (human) (UniProt P12931)
[12] = system: PRKAA1 or PRKAA2 (rat); settings: accession and sequence are those of the human protein
[13] = molecular target: RPS6KA1 KD1 KD2 (human) (UniProt Q15418)
Sequence of RPS6KA1 KD1 KD2 (human) (Q15418 whole entry, looked up): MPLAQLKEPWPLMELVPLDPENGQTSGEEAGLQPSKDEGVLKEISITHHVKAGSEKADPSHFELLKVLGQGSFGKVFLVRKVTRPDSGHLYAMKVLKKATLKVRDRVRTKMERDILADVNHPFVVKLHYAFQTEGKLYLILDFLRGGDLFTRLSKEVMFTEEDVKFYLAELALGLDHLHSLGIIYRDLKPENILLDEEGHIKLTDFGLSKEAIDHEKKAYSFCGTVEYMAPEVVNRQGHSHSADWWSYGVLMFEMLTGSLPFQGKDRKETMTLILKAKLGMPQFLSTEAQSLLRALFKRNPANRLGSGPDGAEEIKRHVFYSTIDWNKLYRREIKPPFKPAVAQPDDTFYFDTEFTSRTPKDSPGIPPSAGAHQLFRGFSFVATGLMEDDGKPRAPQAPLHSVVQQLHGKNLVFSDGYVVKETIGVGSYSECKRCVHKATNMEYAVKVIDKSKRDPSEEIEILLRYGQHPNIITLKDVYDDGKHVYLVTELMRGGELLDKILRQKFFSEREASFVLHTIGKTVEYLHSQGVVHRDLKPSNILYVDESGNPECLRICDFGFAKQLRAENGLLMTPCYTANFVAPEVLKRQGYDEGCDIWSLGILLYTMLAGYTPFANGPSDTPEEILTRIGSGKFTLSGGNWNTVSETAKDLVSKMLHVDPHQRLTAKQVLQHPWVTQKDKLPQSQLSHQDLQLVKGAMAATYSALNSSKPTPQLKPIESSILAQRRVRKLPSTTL

[14] = molecular target: RPS6KA5 KD1 KD2 (human) (UniProt O75582)
Sequence of RPS6KA5 KD1 KD2 (human) (O75582 whole entry, looked up): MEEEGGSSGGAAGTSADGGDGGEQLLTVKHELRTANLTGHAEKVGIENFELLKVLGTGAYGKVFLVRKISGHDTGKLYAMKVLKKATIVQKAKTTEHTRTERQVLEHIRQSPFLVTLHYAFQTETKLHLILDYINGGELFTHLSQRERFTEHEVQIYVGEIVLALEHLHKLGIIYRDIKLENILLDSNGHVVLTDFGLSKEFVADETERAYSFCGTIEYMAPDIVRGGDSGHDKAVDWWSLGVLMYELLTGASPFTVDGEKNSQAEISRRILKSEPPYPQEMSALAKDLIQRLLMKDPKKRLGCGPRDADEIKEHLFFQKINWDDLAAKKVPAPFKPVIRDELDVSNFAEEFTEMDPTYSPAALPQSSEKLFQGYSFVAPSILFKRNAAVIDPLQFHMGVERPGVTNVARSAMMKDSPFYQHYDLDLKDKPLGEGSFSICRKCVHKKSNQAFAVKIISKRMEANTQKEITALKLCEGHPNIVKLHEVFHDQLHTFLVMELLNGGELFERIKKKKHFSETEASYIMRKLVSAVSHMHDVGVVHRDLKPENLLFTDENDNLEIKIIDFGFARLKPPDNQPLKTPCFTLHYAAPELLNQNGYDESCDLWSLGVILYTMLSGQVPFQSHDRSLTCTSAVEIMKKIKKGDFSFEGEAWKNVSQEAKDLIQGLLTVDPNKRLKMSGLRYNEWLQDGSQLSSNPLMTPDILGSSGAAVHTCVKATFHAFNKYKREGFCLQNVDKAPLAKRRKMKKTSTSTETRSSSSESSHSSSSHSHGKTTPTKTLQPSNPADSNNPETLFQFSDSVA

[15] = system: AKT2 (human), P31751 [S474D]
[16] = molecular target: CSK (human) (UniProt P41240)
Sequence of CSK (human) (P41240 whole entry, looked up): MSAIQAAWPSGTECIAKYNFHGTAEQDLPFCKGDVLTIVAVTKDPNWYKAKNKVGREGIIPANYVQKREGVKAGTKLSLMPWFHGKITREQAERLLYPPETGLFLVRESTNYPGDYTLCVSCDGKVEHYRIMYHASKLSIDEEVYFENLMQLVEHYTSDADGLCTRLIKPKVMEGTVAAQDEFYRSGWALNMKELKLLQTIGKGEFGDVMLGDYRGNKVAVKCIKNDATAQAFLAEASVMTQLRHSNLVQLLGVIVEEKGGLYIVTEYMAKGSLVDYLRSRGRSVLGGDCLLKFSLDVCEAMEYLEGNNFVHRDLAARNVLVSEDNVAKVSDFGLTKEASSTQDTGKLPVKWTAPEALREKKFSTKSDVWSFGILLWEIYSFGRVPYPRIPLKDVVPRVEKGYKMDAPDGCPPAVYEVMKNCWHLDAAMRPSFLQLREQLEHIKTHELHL

[17] = molecular target: TTK (human) (UniProt P33981)
[18] = molecular target: CSNK1D (human) (UniProt P48730)
[19] = molecular target: NEK2 (human) (UniProt P51955)
[20] = molecular target: FLT1 (human) (UniProt P17948)
Sequence of FLT1 (human) (P17948 whole entry, looked up): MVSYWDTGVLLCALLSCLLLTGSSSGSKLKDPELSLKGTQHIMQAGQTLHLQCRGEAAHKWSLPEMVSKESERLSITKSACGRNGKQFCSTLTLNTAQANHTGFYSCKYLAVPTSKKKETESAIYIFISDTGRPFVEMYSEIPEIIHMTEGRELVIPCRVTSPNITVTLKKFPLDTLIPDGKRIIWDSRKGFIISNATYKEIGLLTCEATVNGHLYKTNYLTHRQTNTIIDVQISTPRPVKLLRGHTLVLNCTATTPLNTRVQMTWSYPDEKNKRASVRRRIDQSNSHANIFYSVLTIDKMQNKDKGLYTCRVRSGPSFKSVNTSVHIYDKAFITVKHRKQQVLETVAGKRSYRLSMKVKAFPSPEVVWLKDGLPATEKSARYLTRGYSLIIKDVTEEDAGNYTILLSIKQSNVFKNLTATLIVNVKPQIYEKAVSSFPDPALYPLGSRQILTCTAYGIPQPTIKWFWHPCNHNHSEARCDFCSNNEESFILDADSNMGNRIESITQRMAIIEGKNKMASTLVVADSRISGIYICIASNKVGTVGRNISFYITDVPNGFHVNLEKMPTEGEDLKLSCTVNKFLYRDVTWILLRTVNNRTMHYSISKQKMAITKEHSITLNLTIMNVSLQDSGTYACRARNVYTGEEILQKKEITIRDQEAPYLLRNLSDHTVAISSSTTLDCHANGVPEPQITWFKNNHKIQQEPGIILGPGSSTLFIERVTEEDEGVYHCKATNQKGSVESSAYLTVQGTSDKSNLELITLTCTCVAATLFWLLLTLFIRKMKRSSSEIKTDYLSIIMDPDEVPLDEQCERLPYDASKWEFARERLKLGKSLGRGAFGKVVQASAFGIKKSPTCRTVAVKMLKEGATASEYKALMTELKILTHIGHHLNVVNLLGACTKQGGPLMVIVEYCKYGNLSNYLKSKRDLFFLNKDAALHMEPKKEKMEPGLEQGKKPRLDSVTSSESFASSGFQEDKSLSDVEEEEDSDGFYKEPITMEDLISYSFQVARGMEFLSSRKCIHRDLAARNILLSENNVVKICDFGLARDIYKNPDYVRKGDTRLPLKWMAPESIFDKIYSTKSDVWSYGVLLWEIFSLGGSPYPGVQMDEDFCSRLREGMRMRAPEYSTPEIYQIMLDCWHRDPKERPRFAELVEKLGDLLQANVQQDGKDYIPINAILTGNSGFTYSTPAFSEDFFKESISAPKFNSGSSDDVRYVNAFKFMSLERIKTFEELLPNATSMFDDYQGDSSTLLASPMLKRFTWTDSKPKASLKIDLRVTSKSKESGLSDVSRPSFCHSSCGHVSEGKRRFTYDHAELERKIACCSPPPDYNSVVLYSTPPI

[21] = molecular target: BTK (human) (UniProt Q06187)
[22] = system: RPS6KB1 (human), P23443 [T412E]
[23] = molecular target: MKNK2 (human) (UniProt Q9HBH9)
[24] = molecular target: EPHB4 (human) (UniProt P54760)
[25] = molecular target: PLK1 (human) (UniProt P53350)
[26] = molecular target: MAPK15 (human) (UniProt Q8TD08)
[27] = molecular target: NEK6 (human) (UniProt Q9HC98)
[28] = molecular target: PRKACA (human) (UniProt P17612)
[29] = molecular target: CHEK2 (human) (UniProt O96017)
[30] = molecular target: INSRR (human) (UniProt P14616)
[31] = molecular target: EPHB1 (human) (UniProt P54762)
Sequence of EPHB1 (human) (P54762 whole entry, looked up): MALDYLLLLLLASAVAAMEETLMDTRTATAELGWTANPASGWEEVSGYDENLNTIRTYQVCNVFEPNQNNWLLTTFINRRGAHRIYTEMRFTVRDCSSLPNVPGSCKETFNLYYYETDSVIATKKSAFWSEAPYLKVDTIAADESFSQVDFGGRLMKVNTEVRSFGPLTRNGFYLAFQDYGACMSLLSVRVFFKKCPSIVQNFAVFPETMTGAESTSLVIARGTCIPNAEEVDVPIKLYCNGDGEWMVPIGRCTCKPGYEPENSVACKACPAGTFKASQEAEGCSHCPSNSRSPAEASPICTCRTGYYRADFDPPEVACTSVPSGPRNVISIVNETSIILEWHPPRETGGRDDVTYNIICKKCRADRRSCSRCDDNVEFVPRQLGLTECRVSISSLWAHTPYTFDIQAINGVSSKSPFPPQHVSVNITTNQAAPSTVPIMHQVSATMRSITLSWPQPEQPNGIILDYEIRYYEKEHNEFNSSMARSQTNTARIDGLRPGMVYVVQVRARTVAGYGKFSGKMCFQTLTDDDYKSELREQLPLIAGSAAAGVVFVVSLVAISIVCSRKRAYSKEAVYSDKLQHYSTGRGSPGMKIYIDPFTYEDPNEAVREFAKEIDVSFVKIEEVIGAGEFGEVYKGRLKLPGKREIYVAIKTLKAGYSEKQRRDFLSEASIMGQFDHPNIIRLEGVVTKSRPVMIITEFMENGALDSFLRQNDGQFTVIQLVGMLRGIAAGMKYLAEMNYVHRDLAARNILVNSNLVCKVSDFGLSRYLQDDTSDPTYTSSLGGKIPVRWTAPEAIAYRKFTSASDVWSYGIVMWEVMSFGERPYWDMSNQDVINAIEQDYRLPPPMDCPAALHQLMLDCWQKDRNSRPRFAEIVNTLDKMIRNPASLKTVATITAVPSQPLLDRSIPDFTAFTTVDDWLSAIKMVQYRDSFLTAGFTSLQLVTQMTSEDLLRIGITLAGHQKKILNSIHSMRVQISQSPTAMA

[32] = molecular target: MAPKAPK3 (human) (UniProt Q16644)
[33] = molecular target: PIM2 (human) (UniProt Q9P1W9)
[34] = molecular target: MAPK1 (human) (UniProt P28482)
[35] = molecular target: IKBKB (human) (UniProt O14920)

Sequence of IKBKE (human) (Q14164 whole entry, looked up): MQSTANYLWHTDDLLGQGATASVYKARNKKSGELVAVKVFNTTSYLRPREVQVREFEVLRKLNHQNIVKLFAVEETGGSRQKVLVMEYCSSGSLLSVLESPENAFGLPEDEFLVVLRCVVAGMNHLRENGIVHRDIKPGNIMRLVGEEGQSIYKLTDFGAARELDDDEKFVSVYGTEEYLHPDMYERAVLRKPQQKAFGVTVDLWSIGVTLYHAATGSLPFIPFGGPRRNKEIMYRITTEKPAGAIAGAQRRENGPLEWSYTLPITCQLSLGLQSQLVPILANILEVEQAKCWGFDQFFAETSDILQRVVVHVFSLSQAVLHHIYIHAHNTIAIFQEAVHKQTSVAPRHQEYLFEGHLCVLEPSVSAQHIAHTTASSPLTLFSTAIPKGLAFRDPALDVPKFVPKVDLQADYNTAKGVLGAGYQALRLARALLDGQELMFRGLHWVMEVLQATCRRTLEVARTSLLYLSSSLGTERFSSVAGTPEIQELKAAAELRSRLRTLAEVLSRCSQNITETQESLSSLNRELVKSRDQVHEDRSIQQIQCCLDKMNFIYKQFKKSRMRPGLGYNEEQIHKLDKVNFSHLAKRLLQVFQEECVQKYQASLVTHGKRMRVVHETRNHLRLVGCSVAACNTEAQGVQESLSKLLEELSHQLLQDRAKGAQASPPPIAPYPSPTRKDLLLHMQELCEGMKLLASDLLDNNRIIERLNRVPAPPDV

For `C=C1C(=O)OC2C1CC/C(C)=C/CCC1(C)OC21` (centres undefined), the residual activity ([1]; compound 1.0 µM) was 96%, the residual activity ([1]; compound 5.0 µM) was 93% and the residual activity ([2]; compound 1.0 µM) was 117%. It also gave a residual activity ([2]; compound 5.0 µM) of 98%, a residual activity ([3]; compound 1.0 µM) of 102% and a residual activity ([3]; compound 5.0 µM) of 105%. It also gave a residual activity ([4]; compound 1.0 µM) of 93%, a residual activity ([4]; compound 5.0 µM) of 116% and a residual activity ([5]; compound 1.0 µM) of 112%. The residual activity ([5]; compound 5.0 µM) was 108%, the residual activity ([6]; compound 1.0 µM) was 102% and the residual activity ([6]; compound 5.0 µM) was 94%. The residual activity ([7]; compound 1.0 µM) was 110%, the residual activity ([7]; compound 5.0 µM) was 87% and the residual activity ([8]; compound 1.0 µM) was 105%. The residual activity ([8]; compound 5.0 µM) was 103%, the residual activity ([9]; compound 1.0 µM) was 101% and the residual activity ([9]; compound 5.0 µM) was 112%. The residual activity ([10]; compound 1.0 µM) was 105%, the residual activity ([10]; compound 5.0 µM) was 111% and the residual activity ([11]; compound 1.0 µM) was 110%. It also gave a residual activity ([11]; compound 5.0 µM) of 111%, a residual activity ([12]; compound 1.0 µM) of 97% and a residual activity ([12]; compound 5.0 µM) of 98%. The residual activity ([13]; compound 1.0 µM) was 110%, the residual activity ([13]; compound 5.0 µM) was 112% and the residual activity ([14]; compound 1.0 µM) was 110%. It also gave a residual activity ([14]; compound 5.0 µM) of 106%, a residual activity ([15]; compound 1.0 µM) of 101% and a residual activity ([15]; compound 5.0 µM) of 92%. For the same compound, the residual activity ([16]; compound 5.0 µM) was 98%, the residual activity ([17]; compound 1.0 µM) was 109% and the residual activity ([17]; compound 5.0 µM) was 106%. The residual activity ([18]; compound 1.0 µM) was 99%, the residual activity ([19]; compound 1.0 µM) was 110% and the residual activity ([20]; compound 1.0 µM) was 109%. For the same compound, the residual activity ([20]; compound 5.0 µM) was 98%, the residual activity ([21]; compound 1.0 µM) was 117% and the residual activity ([21]; compound 5.0 µM) was 85%. It also gave a residual activity ([22]; compound 1.0 µM) of 103%, a residual activity ([22]; compound 5.0 µM) of 106% and a residual activity ([23]; compound 1.0 µM) of 113%. For the same compound, the residual activity ([23]; compound 5.0 µM) was 117%, the residual activity ([24]; compound 1.0 µM) was 124% and the residual activity ([25]; compound 1.0 µM) was 103%. The residual activity ([25]; compound 5.0 µM) was 103%, the residual activity ([26]; compound 1.0 µM) was 98% and the residual activity ([26]; compound 5.0 µM) was 119%. For the same compound, the residual activity ([27]; compound 1.0 µM) was 113%, the residual activity ([27]; compound 5.0 µM) was 82% and the residual activity ([28]; compound 1.0 µM) was 121%. For the same compound, the residual activity ([28]; compound 5.0 µM) was 103%, the residual activity ([29]; compound 1.0 µM) was 102% and the residual activity ([29]; compound 5.0 µM) was 121%. It also gave a residual activity ([30]; compound 1.0 µM) of 107%, a residual activity ([30]; compound 5.0 µM) of 95% and a residual activity ([31]; compound 1.0 µM) of 103%. For the same compound, the residual activity ([31]; compound 5.0 µM) was 115%, the residual activity ([32]; compound 1.0 µM) was 135% and the residual activity ([32]; compound 5.0 µM) was 58%. The residual activity ([33]; compound 1.0 µM) was 110%, the residual activity ([33]; compound 5.0 µM) was 102% and the residual activity ([34]; compound 1.0 µM) was 90%. It also gave a residual activity ([34]; compound 5.0 µM) of 83%.
With `O=C(NOC[C@H](O)CO)c1ccc(F)c(F)c1Nc1ccc(I)cc1Cl` the residual activity ([1]; compound 1.0 µM) was 18%, the residual activity ([1]; compound 10.0 µM) was 2% and the residual activity ([2]; compound 1.0 µM) was 104%. For the same compound, the residual activity ([2]; compound 10.0 µM) was 85%, the residual activity ([3]; compound 1.0 µM) was 111% and the residual activity ([4]; compound 1.0 µM) was 110%. The residual activity ([4]; compound 10.0 µM) was 109%, the residual activity ([5]; compound 1.0 µM) was 103% and the residual activity ([5]; compound 10.0 µM) was 111%. It also gave a residual activity ([6]; compound 1.0 µM) of 104%, a residual activity ([6]; compound 10.0 µM) of 92% and a residual activity ([7]; compound 1.0 µM) of 86%. The residual activity ([7]; compound 10.0 µM) was 89%, the residual activity ([8]; compound 1.0 µM) was 88% and the residual activity ([8]; compound 10.0 µM) was 106%. The residual activity ([9]; compound 1.0 µM) was 99%, the residual activity ([9]; compound 10.0 µM) was 100% and the residual activity ([10]; compound 1.0 µM) was 96%. The residual activity ([10]; compound 10.0 µM) was 97%, the residual activity ([11]; compound 1.0 µM) was 104% and the residual activity ([11]; compound 10.0 µM) was 91%. For the same compound, the residual activity ([12]; compound 1.0 µM) was 110%, the residual activity ([12]; compound 10.0 µM) was 107% and the residual activity ([13]; compound 1.0 µM) was 102%. The residual activity ([13]; compound 10.0 µM) was 102%, the residual activity ([14]; compound 1.0 µM) was 97% and the residual activity ([14]; compound 10.0 µM) was 96%. It also gave a residual activity ([15]; compound 1.0 µM) of 95%, a residual activity ([15]; compound 10.0 µM) of 82% and a residual activity ([16]; compound 1.0 µM) of 93%. It also gave a residual activity ([16]; compound 10.0 µM) of 98%, a residual activity ([17]; compound 1.0 µM) of 98% and a residual activity ([17]; compound 10.0 µM) of 121%. It also gave a residual activity ([18]; compound 1.0 µM) of 89%, a residual activity ([18]; compound 10.0 µM) of 101% and a residual activity ([19]; compound 1.0 µM) of 97%. It also gave a residual activity ([19]; compound 10.0 µM) of 102%, a residual activity ([20]; compound 10.0 µM) of 39% and a residual activity ([21]; compound 1.0 µM) of 110%. For the same compound, the residual activity ([21]; compound 10.0 µM) was 100%, the residual activity ([22]; compound 1.0 µM) was 97% and the residual activity ([22]; compound 10.0 µM) was 81%. The residual activity ([23]; compound 1.0 µM) was 93%, the residual activity ([23]; compound 10.0 µM) was 110% and the residual activity ([24]; compound 1.0 µM) was 90%. It also gave a residual activity ([24]; compound 10.0 µM) of 99%, a residual activity ([25]; compound 1.0 µM) of 81% and a residual activity ([25]; compound 10.0 µM) of 92%. The residual activity ([26]; compound 1.0 µM) was 104%, the residual activity ([26]; compound 10.0 µM) was 96% and the residual activity ([27]; compound 1.0 µM) was 95%. For the same compound, the residual activity ([27]; compound 10.0 µM) was 110%, the residual activity ([28]; compound 1.0 µM) was 87% and the residual activity ([28]; compound 10.0 µM) was 97%. The residual activity ([29]; compound 1.0 µM) was 95%, the residual activity ([29]; compound 10.0 µM) was 114% and the residual activity ([30]; compound 1.0 µM) was 106%. It also gave a residual activity ([35]; compound 1.0 µM) of 88%, a residual activity ([35]; compound 10.0 µM) of 103% and a residual activity ([31]; compound 1.0 µM) of 95%. The residual activity ([31]; compound 10.0 µM) was 115%, the residual activity ([32]; compound 1.0 µM) was 90% and the residual activity ([32]; compound 10.0 µM) was 89%. For the same compound, the residual activity ([34]; compound 1.0 µM) was 90% and the residual activity ([34]; compound 10.0 µM) was 100%.
